# Entries after “also recorded” stand apart in the source; their conditions may differ. Read-outs that look alike come from different tables or passages of the source.
# Legend:
# [1] = tested on: CaMKII T286 phosphorylation; assay type: cell-based
# Description: (§1) Nuclei were isolated as previously described (81). […] Blots were incubated with the following primary antibodies: MeCP2 (S421) (1:1000) and total-MeCP2 (1:1000, kind gifts from Dr. Michael Greenberg, Harvard Medical School), phospho-CaMKII (T286) (1:250, Cell Signaling), pan-CaMKII (1:250, Cell Signaling), ([…] (1:5000, Sigma), and lamin A/C (1:1000, Cell Signaling).
# [2] = tested on: E18+10DIV cultured cortical neurons; assay: Fura-2 ratiometric Ca2+ imaging of KA-induced Ca2+ influx, cortical cultures; assay type: cell-based, rat; conditions: cortex
# Description: (§2) Ratiometric Ca^2+ imaging was performed on E17/18+10 DIV hippocampal and cortical cultures, plated at 1×10^5 cells/well in 24 well plates. […] After 10 min bathed in 100 μM D-APV (Tocris), cells were stimulated using fast (<2 min) bath application of 30 μM kainate (KA). […] Changes in Ca^2+ influx were assessed by change in 340/380 nm excitation ratio from baseline in individual somas (using regions of interests) in NisElements software (see Supp. Methods).
# [3] = tested on: MeCP2 S421 phosphorylation; assay: KCl-induced MeCP2 S421 phosphorylation, immunoblot, hippocampal cultures; assay type: cell-based, rat
# Description: as §1
# [4] = tested on: MeCP2 S421 phosphorylation; assay: KA-induced MeCP2 S421 phosphorylation, immunoblot, cortical E18+10DIV cultures; assay type: cell-based, rat; conditions: Ctx
# Description: as §1
# [5] = tested on: E18+10DIV cultured hippocampal neurons; assay: Fura-2 ratiometric Ca2+ imaging of KA-induced Ca2+ influx, hippocampal cultures; assay type: cell-based, rat; conditions: hippocampus
# Description: as §2
# [6] = tested on: MeCP2 S421 phosphorylation; assay: KA-induced MeCP2 S421 phosphorylation, immunoblot, hippocampal E18+10DIV cultures; assay type: cell-based, rat; conditions: H
# Description: as §1
# [7] = tested on: MeCP2 S421 phosphorylation; assay: KCl-induced MeCP2 S421 phosphorylation, immunoblot, cortical cultures; assay type: cell-based, rat
# Description: as §1
# PTZ-induced seizures = conditions: in vivo; cited from earlier work
# [8] = tested on: MeCP2 S421 phosphorylation; assay: In vivo hypoxic seizure (HS)-induced MeCP2 S421 phosphorylation in P10 rats; set-up: species or system rat; conditions: for MeCP2 S421 phosphorylation 3 hrs post-HS: P10 rats, normalized to mean C+V control (100±8%), HS+V 157±11%, 20 mg/kg NBQX, 20 mg/kg IEM-1460, nimodipine 10 mg·kg, i.p.; for Baseline MeCP2 phosphorylation in control rats: control rats without HS
# Description: as §1
# GluA2-lacking AMPAR = assay: AMPAR eEPSC currents in CDKL5 R59X mouse model; assay type: cell-based
# CaMKII phosphorylation = assay: In vivo hypoxic seizure-induced CaMKII phosphorylation; conditions: HS model
# Description: as §1
# CDKL5 R59X mouse = assay: Behaviour of CDKL5 R59X mice after acute in vivo treatment
# [9] = tested on: hippocampal CA1 AMPAR function, silent synapses, LTP; assay: Hippocampal slice electrophysiology after P10 hypoxic seizures, post-seizure treatment; assay type: in vivo, rat
# Description: FIG. 23 ELS induce altered hippocampal CA1 AMPAR function, silent synapses, and synaptic plasticity. Hippocampal brains slices removed at 48-72 h after P10 hypoxic seizures (HS) cause (A) enhanced AMPAR-mediated sEPSCs, (B) inwardly rectifying AMPAR eEPSCs, and (C) a precocious loss of silent synapses indicated by both decreased failure rates and silent synapse fraction. These changes yield attenuated synaptic plasticity both in early-life and as adults: (D) reduced eEPSC amplitude in post-HS 48-72 hrs from whole-cell LTP pairing protocol; (E,F) decreased potentiation from extracellular LTP recordings.
# [10] = tested on: primary auditory cortex (AI) silent synapses; assay: PTZ-ELS auditory cortex critical period plasticity; assay type: in vivo; conditions: PTZ P9-11; 1 dose following seizure induction each day
# tdTom+ cells = assay: tdTom+ cell labelling after PTZ seizures at P9-11 in FosTRAP mice; assay type: in vivo, mouse; conditions: NBQX 1 hr post PTZ stage 5 seizures; preliminary cohort n=3/group
# Description: Seizures will be induced as described above. For the KA model, beginning 1 hour after KA seizure, mice will receive doses of either NBQX (20 mg/kg i.p.), […] IEM 1460 (10 mg/kg i.p.), or saline every 12 hrs×4 doses as per prior protocols with ELS. For the PTZ model, we will follow our prior protocol, and deliver the NBQX (20 mg/kg i.p.), IEM 1460 (10 mg/kg i.p.) or saline at 1 hr post seizure on P9, P10, and […] (FIG. 33). Mice will be euthanized at P15, P30, or P60. Two sets of groups will be prepared (n=12/group): the first for perfusion and subsequent IHC to determine whether treatment decreases the number of tdTom+ cells. Confocal imaging of at least 2 fields/section and 3 sections/mouse in defined areas of hippocampal CA subfields and dentate gyrus (hippocampus: Bregma −1.46 to −2.70 mm (interaural 2.34 mm-1.1 mm) or primary auditory cortex (Bregma −2.18 mm to −3.64 mm (interaural 1.5 mm to 0.16 mm) will be used. MAP2, Iba-1, GFAP, and GAD67 will be used to confirm cell identity. Cell counts will be performed using ImageJ software and group differences analyzed by 2-way ANOVA/Bonferroni correction. Multivariate linear and logistic regression will be used to evaluate effects of age, gender, treatment groups and seizure severity in ELS. […]
# [11] = tested on: hypoxic seizure (HS) model; conditions: post-seizure in vivo treatment; previously shown (6, 12); cited from earlier work
# [12] = KA 100 μM, 100 μM D-APV alone, vs. KA, NaOH+DMSO treated controls
# [13] = KA-induced, 5 μM KN93, KN92 5 μM, EGTA 1 mM
# [14] = KA 100 μM, in the presence of APV, NBQX, NASPM 150 μM, nimodipine 5 μM
# [15] = KA+APV plus NBQX 50 μM or NASPM 150 μM, vs. KA+APV condition (100±3%)
structure (smiles),measurement,setting,value
N[C@H](CCCP(=O)(O)O)C(=O)O [D-APV],KA-induced CaMKII phosphorylation,"[1]; Ctx, pre-treatment with D-APV alone",81±11%
same,KA-induced CaMKII phosphorylation,"[1]; H, pre-treatment with D-APV alone",86±9%
same,"KA-induced Ca2+ influx, normalized mean peak ratio","[2]; KA 30 μM, D-APV 100 μM, normalized to KA only (100±2%)",74±3%
same,KCl-mediated MeCP2 phosphorylation,"[3]; hippocampal neurons, 10 DIV, D-APV alone",73±21%
same,MeCP2 S421 phosphorylation,[4]; [12],76±13%
same,"KA-induced Ca2+ influx, normalized mean peak ratio","[5]; KA 30 μM, D-APV 100 μM, normalized to KA only (100±3%)",73±3%
same,MeCP2 S421 phosphorylation,[6]; [12],89±13%
same,KCl-mediated MeCP2 phosphorylation,"[7]; cortical neurons, 10 DIV, D-APV alone",87±21%
CC(=O)OCOC(=O)CN(CCOCCOCCN(CC(=O)OCOC(C)=O)CC(=O)OCOC(C)=O)CC(=O)OCOC(C)=O [EGTA-AM],Phosphorylation of MeCP2 S421,"[4]; 100 μM EGTA-AM, p=0.0001",reduced
same,Phosphorylation of MeCP2 S421,"[6]; 100 μM EGTA-AM, p=0.0057",reduced
O=C(O)CN(CCOCCOCCN(CC(=O)O)CC(=O)O)CC(=O)O [EGTA],MeCP2 S421 phosphorylation,[4]; [13],72±7%
same,MeCP2 S421 phosphorylation,[6]; [13],66±7%
Br.C[N+](C)(C)CCCCCNCC12CC3CC(CC(C3)C1)C2.[Br-] [IEM-1460],Effect in PTZ-induced seizures,PTZ-induced seizures,anti-seizure effects
same,MeCP2 S421 phosphorylation 3 hrs post-HS,[8],106±11%
same,Baseline MeCP2 phosphorylation in control rats,[8],did not affect
same,Enhanced AMPAR currents,GluA2-lacking AMPAR,decreased; also recorded: attenuated
same,Seizure-induced CaMKII phosphorylation in vivo,CaMKII phosphorylation,prevented
same,Seizure behavior latency,CDKL5 R59X mouse,rescued
same,Autistic like impairment in social behavior / social deficits,CDKL5 R59X mouse; acute in vivo treatment,rescued; also recorded: improves
same,Spatial and temporal working memory in Y maze (% spontaneous alternating behavior),CDKL5 R59X mouse; acute in vivo treatment,rescued; also recorded: improves
same,Activity-dependent MeCP2 phosphorylation in cultured neurons in vitro,"[4]; p<0.0049, stimulus and concentration not stated",reduced
same,Activity-dependent MeCP2 phosphorylation in cultured neurons in vitro,"[6]; p<0.0361, stimulus and concentration not stated",reduced
COc1ccc(S(=O)(=O)Nc2ccccc2CN(C)C/C=C/c2ccc(Cl)cc2)cc1 [KN92],MeCP2 S421 phosphorylation,[4]; [13],99±3%
same,MeCP2 S421 phosphorylation,[6]; [13],97±3%
COc1ccc(S(=O)(=O)N(CCO)c2ccccc2CN(C)C/C=C/c2ccc(Cl)cc2)cc1 [KN93],MeCP2 S421 phosphorylation,[4]; [13],10±3%
same,MeCP2 S421 phosphorylation,[6]; [13],3±1%
"NCCCNCCCCNCCCNC(=O)Cc1cccc2ccccc12 [NASPM, 1-Napthylacetyl Spermine]",KA-induced CaMKII phosphorylation,"[1]; Ctx, in the presence of D-APV",25±5%
same,KA-induced CaMKII phosphorylation,"[1]; H, in the presence of D-APV",28±7%
same,KCl-mediated MeCP2 phosphorylation,"[3]; H, in the presence of D-APV",11±6%
same,MeCP2 S421 phosphorylation,[4]; [14],12±2%
same,MeCP2 S421 phosphorylation,[6]; [14],30±9%
same,KCl-mediated MeCP2 phosphorylation,"[7]; Ctx, in the presence of D-APV",32±13%
NS(=O)(=O)c1cccc2c1c([N+](=O)[O-])cc1nc(O)c(O)nc12 [NBQX],Impaired LTP,[9]; 48-72 hr post HS and as P60 adults,protects
same,Enhanced AMPAR function following ELS,[9]; post-seizure treatment,attenuates
same,Premature silent synapse loss,[9]; post-seizure treatment,reverses
same,KA-induced CaMKII phosphorylation,"[1]; Ctx, in the presence of D-APV",18±4%
same,KA-induced CaMKII phosphorylation,"[1]; H, in the presence of D-APV",21±3%
same,MeCP2 S421 phosphorylation 3 hrs post-HS,[8],81±8%
same,Baseline MeCP2 phosphorylation in control rats,[8],did not affect
same,Remaining NMDAR-insensitive Ca2+ influx,[2]; [15],3±2%
same,Subsequent A1 plasticity,[10],permits
same,Synapse unsilencing,[10],prevents
same,Seizure-induced CaMKII phosphorylation in vivo,CaMKII phosphorylation,prevented
same,Number of tdTom+ cells,tdTom+ cells,decrease; also recorded: reduction
same,KCl-mediated MeCP2 phosphorylation,"[3]; H, in the presence of D-APV",21±6%
same,KCl-induced phosphorylation of MeCP2 S421,"[3]; hippocampus, NBQX alone, p=0.0003",reversed
same,MeCP2 S421 phosphorylation,[4]; [14],0±0.3%
same,Remaining NMDAR-insensitive Ca2+ influx,[5]; [15],31±2%
same,"Later-life seizures, altered synaptic plasticity, and autistic-like social deficits",[11],prevents
same,MeCP2 S421 phosphorylation,[6]; [14],3±5%
same,KCl-mediated MeCP2 phosphorylation,"[7]; Ctx, in the presence of D-APV",35±5%
same,KCl-induced phosphorylation of MeCP2 S421,"[7]; cortex, NBQX alone, p=0.0069",reversed
COCCOC(=O)C1=C(C)NC(C)=C(C(=O)OC(C)C)C1c1cccc([N+](=O)[O-])c1 (centres unmarked) [nimodipine],KA-induced CaMKII phosphorylation,"[1]; Ctx, in the presence of D-APV",23±9%
same,KA-induced CaMKII phosphorylation,"[1]; H, in the presence of D-APV",33±6%
same,MeCP2 S421 phosphorylation 3 hrs post-HS,[8],103±9%
same,KCl-mediated MeCP2 phosphorylation,"[3]; H, in the presence of D-APV",0±1%
same,MeCP2 S421 phosphorylation,[4]; [14],4±1%
same,MeCP2 S421 phosphorylation,[6]; [14],21±6%
same,KCl-mediated MeCP2 phosphorylation,"[7]; Ctx, in the presence of D-APV",10±6%
